Results as given in US9597407B2, “Targeted antimicrobial moieties” (C3 Jian, Inc., priority 2009, dated 2017).
Entries after “also recorded” stand apart in the source; their conditions may differ. Ends that are not written are not given here.

Columns and labels:
bacteria = experiment: Binding of targeting peptides to microorganisms (Table 3); settings: peptide binding in aqueous buffers varied by peptide solubility; preferably 1x PBS
microorganisms = experiment: Morphology, biofilm and growth disruption by peptides (Table 5); assay type: cell-based; parameters: key: A: Peptide aggregates; B: Less hyphal formation; Clumps; Diffuse clumps and small polyps; F: Diffuse growth; H: Thin; I: Growth inhibition; Microcolony formation; Rippled; Small polyps; Thick; W: Halo formation on top, microlonies on bottom
Description: In certain embodiments peptides that induce alterations in phenotype or other biological activities can also be used as antimicrobial effector moieties.

## 1T-3 (VLGIAGGLDAYGELVGGN; Peptide with targeting and/or antimicrobial activity) [Peptide 1T-3]
bacteria
  Target(s) (microorganism bound by the targeting peptide): S. mutans; also recorded: S. gordonii

## 1T-4 (LDAYGELVGGN; Peptide with targeting and/or antimicrobial activity) [Peptide 1T-4]
bacteria
  Target(s) (microorganism bound by the targeting peptide): S. gordonii; also recorded: S. sanguinis; also recorded: S. oxalis; also recorded: V. atypica; also recorded: L. casei; also recorded: S. mutans

## PF-634 (chain 1 MPKARPVNHNKKKSKITIKSNFTLFYMFNP; chain 2 MPKARPVNHNKKKSKITIKSNFTLFYMFNP; Peptide with targeting and/or antimicrobial activity)
microorganisms; E. coli
  Organism, effect (morphology, biofilm and growth disruption): E. coli (C)
microorganisms; M. luteus
  Organism, effect (morphology, biofilm and growth disruption): M. luteus (C)
microorganisms; MRSA
  Organism, effect (morphology, biofilm and growth disruption): MRSA (D)
microorganisms; P. mirabilis
  Organism, effect (morphology, biofilm and growth disruption): P. mirabilis (C)
microorganisms; S. epidermidis
  Organism, effect (morphology, biofilm and growth disruption): S. epidermidis (D)
microorganisms; S. mutans
  Organism, effect (morphology, biofilm and growth disruption): S. mutans (D)
microorganisms; S. pneumoniae
  Organism, effect (morphology, biofilm and growth disruption): S. pneumoniae (D)

## PF-670 (chain 1 TVIVAPMHSGV; chain 2 TVIVAPMHSGV; Peptide with targeting and/or antimicrobial activity)
microorganisms; B. subtilis
  Organism, effect (morphology, biofilm and growth disruption): B. subtilis (H)
microorganisms; S. pneumoniae
  Organism, effect (morphology, biofilm and growth disruption): S. pneumoniae (H)

## PF-C089 (MPKRHYYKLEAKALQFGLPFAYSPIQLLK; Peptide with targeting and/or antimicrobial activity)
microorganisms; P. gingivalis
  Organism, effect (morphology, biofilm and growth disruption): P. gingivalis (R)

## PF-C214 (GGHKQLVIEPLVSQ; Peptide with targeting and/or antimicrobial activity)
microorganisms; F. nucleatum
  Organism, effect (morphology, biofilm and growth disruption): F. nucleatum (T)

## PF-C293 (IIIILPKIYLVCKTV; Peptide with targeting and/or antimicrobial activity)
microorganisms; F. nucleatum
  Organism, effect (morphology, biofilm and growth disruption): F. nucleatum (T)
microorganisms; P. gingivalis
  Organism, effect (morphology, biofilm and growth disruption): P. gingivalis (R)
microorganisms; S. mutans
  Organism, effect (morphology, biofilm and growth disruption): S. mutans (F)

## RRGCTERLRRMARRNAWDLYAEHFY [PF-148]
microorganisms; B. subtilis
  Organism, effect: B. subtilis (I)
microorganisms; C. albicans
  Organism, effect: C. albicans (B)
microorganisms; C. jeikeium
  Organism, effect: C. jeikeium (H)
microorganisms; C. jejuni
  Organism, effect: C. jejuni (H)
microorganisms; M. luteus
  Organism, effect: M. luteus (A)
microorganisms; MRSA
  Organism, effect: MRSA (C)
microorganisms; S. epidermidis
  Organism, effect: S. epidermidis (D)
microorganisms; S. pneumoniae
  Organism, effect: S. pneumoniae (R)

## SKFKVLRKIIIKEYKGELMLSIQKQR [PF-530]
microorganisms; E. coli
  Organism, effect (morphology, biofilm and growth disruption): E. coli (R)
microorganisms; E. faecalis
  Organism, effect (morphology, biofilm and growth disruption): E. faecalis (C)
microorganisms; MRSA
  Organism, effect (morphology, biofilm and growth disruption): MRSA (C)
microorganisms; S. epidermidis
  Organism, effect (morphology, biofilm and growth disruption): S. epidermidis (H)
microorganisms; S. pneumoniae
  Organism, effect (morphology, biofilm and growth disruption): S. pneumoniae (R)

## TKKIELKRFVDAFVKKSYENYILERELKKLIKAINEELPTK [PF-600]
microorganisms; E. coli
  Organism, effect (morphology, biofilm and growth disruption): E. coli (H)
microorganisms; M. luteus
  Organism, effect (morphology, biofilm and growth disruption): M. luteus (C)
microorganisms; MRSA
  Organism, effect (morphology, biofilm and growth disruption): MRSA (M)
microorganisms; S. epidermidis
  Organism, effect (morphology, biofilm and growth disruption): S. epidermidis (C)
microorganisms; S. mutans
  Organism, effect (morphology, biofilm and growth disruption): S. mutans (S)
microorganisms; S. pneumoniae
  Organism, effect (morphology, biofilm and growth disruption): S. pneumoniae (R)

## YIQFHLNQQPRPKVKKIKIFL-NH2 [PF-531]
microorganisms; E. coli
  Organism, effect (morphology, biofilm and growth disruption): E. coli (M)
microorganisms; P. aeruginosa
  Organism, effect (morphology, biofilm and growth disruption): P. aeruginosa (I)
microorganisms; S. epidermidis
  Organism, effect (morphology, biofilm and growth disruption): S. epidermidis (I)
microorganisms; S. pneumoniae
  Organism, effect (morphology, biofilm and growth disruption): S. pneumoniae (C)
